Data as given in patent US7338957B2, “Compounds and compositions as protein kinase inhibitors” (IRM LLC, priority 2003, dated 2008).

Tests used:
wild type BCR-Abl = biological target: T1, wild type BCR-Abl (Homo sapiens, UniProt P00519); experiment: Antiproliferative effect on Ba/F3 cells expressing wild type BCR-Abl; type: cell-based
T1 construct: expressed in transfected cells; host or cells: Ba/F3; the other entry of the earlier key: BCR (P11274, Breakpoint cluster region protein)
Protocol: (§1) 32D-p210 cells are plated into 96 well TC plates at a density of 15,000 cells per well. 50 μL of two fold serial dilutions of the test compound (Cmax is 40 μM) are added to each well (STI571 is included as a positive control). After incubating the cells for 48 hours at 37° C., 5% CO2, 15 μL of MTT (Promega) is added to each well and the cells are incubated for an additional 5 hours. The optical density at 570 nm is quantified spectrophotometrically and IC50 values, the concentration of compound required for 50% inhibition, determined from a dose response curve.
(§2) Compounds of the invention are tested for their antiproliferative effect on Ba/F3 cells expressing either wild type or the mutant forms of BCR-Abl (G250E, E255V, T315I, F317L, M351T) that confers resistance or diminished sensitivity to STI571. The antiproliferative effect of these compounds on the mutant-BCR-Abl expressing cells and on the non transformed cells were tested at 10, 3.3, 1.1 and 0.37 μM as described above (in media lacking IL3). The IC50 values of the compounds lacking toxicity on the untransformed cells were determined from the dose response curves obtained as describe above.

G250E BCR-Abl = biological target: T2, G250E BCR-Abl (Homo sapiens, UniProt P00519, G250E); experiment: Antiproliferative effect on Ba/F3 cells expressing G250E BCR-Abl; type: cell-based; conditions: Ba/F3 cells expressing G250E mutant
T2 construct: expressed in transfected cells; host or cells: Ba/F3; the other entry of the earlier key: BCR (P11274, Breakpoint cluster region protein)
Protocol: as §1, §2

E255V BCR-Abl = biological target: T3, E255V BCR-Abl (Homo sapiens, UniProt P00519, E255V); experiment: Antiproliferative effect on Ba/F3 cells expressing E255V BCR-Abl; type: cell-based; conditions: Ba/F3 cells expressing E255V mutant
T3 construct: expressed in transfected cells; host or cells: Ba/F3; the other entry of the earlier key: BCR (P11274, Breakpoint cluster region protein)
Protocol: as §1, §2

T315I BCR-Abl = biological target: T4, T315I BCR-Abl (Homo sapiens, UniProt P00519, T315I); experiment: Antiproliferative effect on Ba/F3 cells expressing T315I BCR-Abl; type: cell-based; conditions: Ba/F3 cells expressing T315I mutant
T4 construct: expressed in transfected cells; host or cells: Ba/F3; the other entry of the earlier key: BCR (P11274, Breakpoint cluster region protein)
T4 sequence (P00519 229-512 T315I limits assumed): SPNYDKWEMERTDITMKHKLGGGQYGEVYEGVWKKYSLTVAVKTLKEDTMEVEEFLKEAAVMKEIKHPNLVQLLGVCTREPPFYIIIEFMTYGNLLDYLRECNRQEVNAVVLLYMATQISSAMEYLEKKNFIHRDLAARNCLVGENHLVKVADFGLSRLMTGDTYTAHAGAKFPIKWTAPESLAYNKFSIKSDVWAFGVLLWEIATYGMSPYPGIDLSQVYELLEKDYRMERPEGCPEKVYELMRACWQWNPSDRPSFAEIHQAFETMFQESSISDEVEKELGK
Protocol: as §1, §2

F317L BCR-Abl = biological target: T5, F317L BCR-Abl (Homo sapiens, UniProt P00519, F317L); experiment: Antiproliferative effect on Ba/F3 cells expressing F317L BCR-Abl; type: cell-based; conditions: Ba/F3 cells expressing F317L mutant
T5 construct: expressed in transfected cells; host or cells: Ba/F3; the other entry of the earlier key: BCR (P11274, Breakpoint cluster region protein)
Protocol: as §1, §2

M351T BCR-Abl = biological target: T6, M351T BCR-Abl (Homo sapiens, UniProt P00519, M351T); experiment: Antiproliferative effect on Ba/F3 cells expressing M351T BCR-Abl; type: cell-based; conditions: Ba/F3 cells expressing M351T mutant
T6 construct: expressed in transfected cells; host or cells: Ba/F3; the other entry of the earlier key: BCR (P11274, Breakpoint cluster region protein)
Protocol: as §1, §2

B-RAF = B-RAF (Homo sapiens, UniProt P15056); experiment: B-RAF kinase inhibition assay (IκBα substrate); type: biochemical; conditions: 20 μM ATP
Protocol: Compounds of the invention are tested for their ability to inhibit the activity of B-RAF. The assay is carried out in 384-well MaxiSorp plates (NUNC) with black walls and clear bottom. The substrate, IκBα is diluted in DPBS (1:750) and 15 μL is added to each well. The plates are incubated at 4° C. overnight and washed 3 times with TBST (25 mM Tris, pH 8.0, 150 mM NaCl and 0.05% Tween-20) using the EMBLA plate washer. Plates are blocked by Superblock (15 μL/well) for 3 hours at room temperature, washed 3 times with TBST and pat-dried. Assay buffer containing 20 μM ATP (10 μL) is added to each well followed by 100 nL or 500 nL of compound. B-RAF is diluted in the assay buffer (1 μL into 25 μl) and 10 μL of diluted B-RAF is added to each well (0.4 μg/well). The plates are incubated at room temperature for 2.5 hours. The kinase reaction is stopped by washing the plates 6 times with TBST. Phosph-IκBα (Ser32/36) antibody is diluted in Superblock (1:10,000) and 15 μL is added to each well. The plates are incubated at 4° C. overnight and washed 6 times with TBST. AP-conjugated goat-anti-mouse IgG is diluted in Superblock (1:1,500) and 15 μL is added to each well. Plates are incubated at room temperature for 1 hour and washed 6 times with TBST. […] Plates are read on Acquest or Analyst GT using a Fluorescence Intensity Nanxin BBT anion (505 dichroic mirror).

Bmx = biological target: T7, Bmx (Homo sapiens, UniProt P51813); experiment: Upstate KinaseProfiler radio-enzymatic filter binding assay, Bmx; type: biochemical; conditions: at a concentration of 10 μM; read-out: percentage inhibition of Bmx
T7 construct: purchased Upstate (KinaseProfiler panel)
T7 sequence (P51813 1-675): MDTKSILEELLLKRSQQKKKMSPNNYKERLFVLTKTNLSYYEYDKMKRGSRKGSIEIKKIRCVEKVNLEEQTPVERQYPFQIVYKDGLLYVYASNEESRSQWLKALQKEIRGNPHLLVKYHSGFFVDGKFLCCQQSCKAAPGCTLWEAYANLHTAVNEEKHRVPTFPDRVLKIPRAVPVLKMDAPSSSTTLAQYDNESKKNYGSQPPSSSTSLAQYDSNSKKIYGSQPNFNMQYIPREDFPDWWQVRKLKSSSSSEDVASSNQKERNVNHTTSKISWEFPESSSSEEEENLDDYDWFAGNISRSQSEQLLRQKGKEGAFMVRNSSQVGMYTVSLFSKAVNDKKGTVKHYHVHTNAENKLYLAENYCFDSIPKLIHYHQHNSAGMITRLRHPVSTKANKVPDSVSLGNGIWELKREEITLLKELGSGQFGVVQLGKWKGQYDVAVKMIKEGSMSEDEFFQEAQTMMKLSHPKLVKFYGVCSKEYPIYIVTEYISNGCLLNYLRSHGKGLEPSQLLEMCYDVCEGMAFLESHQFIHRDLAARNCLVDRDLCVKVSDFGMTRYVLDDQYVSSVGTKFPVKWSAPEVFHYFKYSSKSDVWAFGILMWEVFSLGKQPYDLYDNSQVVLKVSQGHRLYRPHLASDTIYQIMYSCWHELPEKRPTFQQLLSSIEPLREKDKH
Protocol: (§3) Compounds of the invention are assessed for their ability to inhibit individual members of a panel of kinases (a partial, non-limiting list of kinases includes: BMX, CSK, TrkB, FGFR3, Fes, Lck, B-RAF, C-RAF, MKK6, SAPK2α and SAPK2β). The compounds are tested in duplicates at a final concentration of 10 μM following this generic protocol. Note that the kinase buffer composition and the substrates vary for the different kinases included in the “Upstate KinaseProfiler™” panel. Kinase buffer (2.5 μL, 10×—containing MnCl2 when required), active kinase (0.001-0.01 Units; 2.5 μL), specific or Poly(Glu4-Tyr) peptide (5-500 μM or 0.01 mg/ml) in kinase buffer and kinase buffer (50 μM; 5 μL) are mixed in an eppendorf on ice. […] The assay squares are transferred to a scintillation vial, 5 ml scintillation cocktail are added and ^32P incorporation (cpm) to the peptide substrate is quantified with a Beckman scintillation counter. Percentage inhibition is calculated for each reaction.

c-Raf = biological target: T8, c-Raf (Homo sapiens, UniProt P04049); experiment: Upstate KinaseProfiler radio-enzymatic filter binding assay, c-Raf; type: biochemical; conditions: at a concentration of 10 μM; read-out: percentage inhibition of c-Raf
T8 construct: purchased Upstate (KinaseProfiler panel)
Protocol: as §3

CSK = biological target: T9, CSK (Homo sapiens, UniProt P41240); experiment: Upstate KinaseProfiler radio-enzymatic filter binding assay, CSK; type: biochemical; conditions: at a concentration of 10 μM; read-out: percentage inhibition of CSK
T9 construct: purchased Upstate (KinaseProfiler panel)
Protocol: as §3

Fes = biological target: T10, Fes (Homo sapiens, UniProt P07332); experiment: Upstate KinaseProfiler radio-enzymatic filter binding assay, Fes; type: biochemical; conditions: at a concentration of 10 μM; read-out: percentage inhibition of Fes
T10 construct: purchased Upstate (KinaseProfiler panel)
Protocol: as §3

Lck = biological target: T11, Lck (Homo sapiens, UniProt P06239); experiment: Upstate KinaseProfiler radio-enzymatic filter binding assay, Lck; type: biochemical; conditions: at a concentration of 10 μM; read-out: percentage inhibition of Lck
T11 construct: purchased Upstate (KinaseProfiler panel)
Protocol: as §3

SAPK2β = biological target: T12, SAPK2β (Homo sapiens, UniProt Q15759); experiment: Upstate KinaseProfiler radio-enzymatic filter binding assay, SAPK2β; type: biochemical; conditions: at a concentration of 10 μM; read-out: percentage inhibition of SAPK2β
T12 construct: purchased Upstate (KinaseProfiler panel)
Protocol: as §3

TrkB = biological target: T13, TrkB (Homo sapiens, UniProt Q16620); experiment: Upstate KinaseProfiler radio-enzymatic filter binding assay, TrkB; type: biochemical; conditions: at a concentration of 10 μM; read-out: percentage inhibition of TrkB
T13 construct: purchased Upstate (KinaseProfiler panel)
Protocol: as §3

FGFR3 = biological target: T14, FGFR3 (Homo sapiens, UniProt P22607); experiment: Upstate KinaseProfiler radio-enzymatic filter binding assay, FGFR3; type: biochemical; conditions: at a concentration of 10 μM; read-out: percentage inhibition of FGFR3
T14 construct: purchased Upstate (KinaseProfiler panel)
Protocol: as §3

MKK6 = biological target: T15, MKK6 (Homo sapiens, UniProt P52564); experiment: Upstate KinaseProfiler radio-enzymatic filter binding assay, MKK6; type: biochemical; conditions: at a concentration of 10 μM; read-out: percentage inhibition of MKK6
T15 construct: purchased Upstate (KinaseProfiler panel)
T15 sequence (P52564 1-334): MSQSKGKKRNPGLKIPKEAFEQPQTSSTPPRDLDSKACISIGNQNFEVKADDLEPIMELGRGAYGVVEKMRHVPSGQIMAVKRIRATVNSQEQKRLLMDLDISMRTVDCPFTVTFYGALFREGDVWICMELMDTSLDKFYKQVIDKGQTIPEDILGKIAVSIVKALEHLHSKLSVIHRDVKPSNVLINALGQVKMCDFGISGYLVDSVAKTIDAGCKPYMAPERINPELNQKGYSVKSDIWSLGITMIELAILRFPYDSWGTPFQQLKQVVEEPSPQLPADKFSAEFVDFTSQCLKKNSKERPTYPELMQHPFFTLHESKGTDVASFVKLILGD
Protocol: as §3

SAPK2α = biological target: T16, SAPK2α (Homo sapiens, UniProt Q16539); experiment: Upstate KinaseProfiler radio-enzymatic filter binding assay, SAPK2α; type: biochemical; conditions: at a concentration of 10 μM; read-out: percentage inhibition of SAPK2α
T16 construct: purchased Upstate (KinaseProfiler panel)
Protocol: as §3

T12 sequence (Q15759 whole entry): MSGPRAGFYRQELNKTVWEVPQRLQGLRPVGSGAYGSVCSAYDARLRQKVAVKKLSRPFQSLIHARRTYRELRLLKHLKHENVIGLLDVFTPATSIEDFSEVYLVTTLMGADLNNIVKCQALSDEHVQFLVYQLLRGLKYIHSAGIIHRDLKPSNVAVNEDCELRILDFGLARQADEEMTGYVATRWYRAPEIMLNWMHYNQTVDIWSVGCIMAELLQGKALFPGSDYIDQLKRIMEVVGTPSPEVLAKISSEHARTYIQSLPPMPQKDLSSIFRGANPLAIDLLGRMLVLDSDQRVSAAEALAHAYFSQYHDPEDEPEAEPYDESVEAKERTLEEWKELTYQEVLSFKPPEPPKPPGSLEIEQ
T13 sequence (Q16620 32-822): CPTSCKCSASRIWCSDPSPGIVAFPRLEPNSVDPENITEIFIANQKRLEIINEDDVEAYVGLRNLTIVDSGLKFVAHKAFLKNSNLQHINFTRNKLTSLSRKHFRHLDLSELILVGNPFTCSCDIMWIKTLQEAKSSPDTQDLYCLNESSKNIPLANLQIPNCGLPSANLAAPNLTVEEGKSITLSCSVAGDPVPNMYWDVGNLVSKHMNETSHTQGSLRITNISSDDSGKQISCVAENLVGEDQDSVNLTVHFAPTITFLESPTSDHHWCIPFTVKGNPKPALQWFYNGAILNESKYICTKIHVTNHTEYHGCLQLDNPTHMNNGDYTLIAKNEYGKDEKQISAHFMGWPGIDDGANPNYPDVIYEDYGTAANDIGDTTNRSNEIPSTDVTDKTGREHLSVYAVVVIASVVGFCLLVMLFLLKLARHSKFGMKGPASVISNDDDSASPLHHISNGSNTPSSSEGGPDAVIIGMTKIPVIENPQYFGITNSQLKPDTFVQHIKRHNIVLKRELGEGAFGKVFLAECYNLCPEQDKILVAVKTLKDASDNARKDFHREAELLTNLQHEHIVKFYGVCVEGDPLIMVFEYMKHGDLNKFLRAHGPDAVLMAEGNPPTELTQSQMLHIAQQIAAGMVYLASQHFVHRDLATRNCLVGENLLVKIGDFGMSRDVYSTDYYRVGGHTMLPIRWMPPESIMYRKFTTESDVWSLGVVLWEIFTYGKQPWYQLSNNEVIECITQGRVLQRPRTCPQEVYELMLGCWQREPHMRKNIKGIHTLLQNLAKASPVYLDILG
T9 sequence (P41240 whole entry): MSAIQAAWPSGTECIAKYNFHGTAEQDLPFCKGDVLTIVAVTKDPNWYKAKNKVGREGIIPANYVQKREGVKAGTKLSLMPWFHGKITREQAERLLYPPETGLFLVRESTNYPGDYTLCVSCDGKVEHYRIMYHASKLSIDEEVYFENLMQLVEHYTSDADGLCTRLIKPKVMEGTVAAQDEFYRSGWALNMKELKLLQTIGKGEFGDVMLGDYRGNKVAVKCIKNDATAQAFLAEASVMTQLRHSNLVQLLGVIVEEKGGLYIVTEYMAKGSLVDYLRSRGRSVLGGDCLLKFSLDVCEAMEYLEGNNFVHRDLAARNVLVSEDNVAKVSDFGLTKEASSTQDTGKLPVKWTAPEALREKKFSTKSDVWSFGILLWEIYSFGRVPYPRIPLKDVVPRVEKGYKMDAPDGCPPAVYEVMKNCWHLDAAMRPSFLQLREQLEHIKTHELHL
T8 sequence (P04049 whole entry): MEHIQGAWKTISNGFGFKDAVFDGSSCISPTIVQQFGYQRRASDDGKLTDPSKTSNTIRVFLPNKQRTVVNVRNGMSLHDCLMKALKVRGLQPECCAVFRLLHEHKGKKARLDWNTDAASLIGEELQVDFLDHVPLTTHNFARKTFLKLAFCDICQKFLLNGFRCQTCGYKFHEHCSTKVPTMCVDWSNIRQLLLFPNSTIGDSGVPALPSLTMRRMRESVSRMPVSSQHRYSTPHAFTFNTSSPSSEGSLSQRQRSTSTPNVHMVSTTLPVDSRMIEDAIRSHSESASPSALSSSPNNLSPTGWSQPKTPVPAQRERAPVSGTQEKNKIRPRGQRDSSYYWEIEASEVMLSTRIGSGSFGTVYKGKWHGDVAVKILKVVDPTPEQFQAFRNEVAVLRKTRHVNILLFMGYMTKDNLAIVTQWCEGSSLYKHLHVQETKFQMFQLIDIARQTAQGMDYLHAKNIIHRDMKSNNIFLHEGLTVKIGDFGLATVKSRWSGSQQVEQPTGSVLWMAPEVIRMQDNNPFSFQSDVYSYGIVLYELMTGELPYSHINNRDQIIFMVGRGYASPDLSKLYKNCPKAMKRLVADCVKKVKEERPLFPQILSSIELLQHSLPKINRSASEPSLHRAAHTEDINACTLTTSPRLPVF
T10 sequence (P07332 whole entry): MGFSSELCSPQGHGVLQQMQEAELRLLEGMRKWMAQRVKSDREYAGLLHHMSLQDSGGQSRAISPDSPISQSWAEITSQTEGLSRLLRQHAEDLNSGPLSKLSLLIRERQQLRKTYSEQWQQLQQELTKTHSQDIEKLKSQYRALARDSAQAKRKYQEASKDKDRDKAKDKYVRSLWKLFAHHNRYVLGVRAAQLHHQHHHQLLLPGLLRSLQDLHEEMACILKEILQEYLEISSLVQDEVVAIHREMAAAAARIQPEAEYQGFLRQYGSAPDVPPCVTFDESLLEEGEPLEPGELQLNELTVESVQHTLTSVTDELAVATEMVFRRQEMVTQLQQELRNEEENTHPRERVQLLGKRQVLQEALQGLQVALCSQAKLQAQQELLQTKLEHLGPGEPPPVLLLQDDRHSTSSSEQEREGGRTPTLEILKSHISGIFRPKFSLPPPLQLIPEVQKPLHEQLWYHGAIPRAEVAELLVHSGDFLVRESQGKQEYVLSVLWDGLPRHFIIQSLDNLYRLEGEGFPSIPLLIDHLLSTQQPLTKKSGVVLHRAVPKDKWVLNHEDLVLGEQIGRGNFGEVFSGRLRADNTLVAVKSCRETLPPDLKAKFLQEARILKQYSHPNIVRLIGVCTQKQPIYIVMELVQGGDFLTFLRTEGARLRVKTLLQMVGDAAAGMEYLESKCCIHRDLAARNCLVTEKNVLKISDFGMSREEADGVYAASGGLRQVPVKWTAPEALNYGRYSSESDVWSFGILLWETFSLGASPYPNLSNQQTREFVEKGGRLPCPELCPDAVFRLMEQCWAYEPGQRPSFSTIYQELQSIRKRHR
T11 sequence (P06239 whole entry): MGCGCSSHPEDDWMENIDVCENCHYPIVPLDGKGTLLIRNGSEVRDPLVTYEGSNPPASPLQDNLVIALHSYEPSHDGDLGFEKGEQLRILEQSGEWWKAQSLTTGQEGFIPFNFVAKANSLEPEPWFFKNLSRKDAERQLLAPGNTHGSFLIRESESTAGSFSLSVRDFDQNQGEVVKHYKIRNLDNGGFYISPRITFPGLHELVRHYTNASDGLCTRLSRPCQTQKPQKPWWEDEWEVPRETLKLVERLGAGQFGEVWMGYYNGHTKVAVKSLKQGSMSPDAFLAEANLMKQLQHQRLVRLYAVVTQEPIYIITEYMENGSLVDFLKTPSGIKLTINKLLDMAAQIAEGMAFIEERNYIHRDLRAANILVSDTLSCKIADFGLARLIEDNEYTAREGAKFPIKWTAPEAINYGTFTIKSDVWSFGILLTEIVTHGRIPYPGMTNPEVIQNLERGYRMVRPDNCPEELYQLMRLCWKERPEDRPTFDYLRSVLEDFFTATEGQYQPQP
T14 sequence (P22607 23-806): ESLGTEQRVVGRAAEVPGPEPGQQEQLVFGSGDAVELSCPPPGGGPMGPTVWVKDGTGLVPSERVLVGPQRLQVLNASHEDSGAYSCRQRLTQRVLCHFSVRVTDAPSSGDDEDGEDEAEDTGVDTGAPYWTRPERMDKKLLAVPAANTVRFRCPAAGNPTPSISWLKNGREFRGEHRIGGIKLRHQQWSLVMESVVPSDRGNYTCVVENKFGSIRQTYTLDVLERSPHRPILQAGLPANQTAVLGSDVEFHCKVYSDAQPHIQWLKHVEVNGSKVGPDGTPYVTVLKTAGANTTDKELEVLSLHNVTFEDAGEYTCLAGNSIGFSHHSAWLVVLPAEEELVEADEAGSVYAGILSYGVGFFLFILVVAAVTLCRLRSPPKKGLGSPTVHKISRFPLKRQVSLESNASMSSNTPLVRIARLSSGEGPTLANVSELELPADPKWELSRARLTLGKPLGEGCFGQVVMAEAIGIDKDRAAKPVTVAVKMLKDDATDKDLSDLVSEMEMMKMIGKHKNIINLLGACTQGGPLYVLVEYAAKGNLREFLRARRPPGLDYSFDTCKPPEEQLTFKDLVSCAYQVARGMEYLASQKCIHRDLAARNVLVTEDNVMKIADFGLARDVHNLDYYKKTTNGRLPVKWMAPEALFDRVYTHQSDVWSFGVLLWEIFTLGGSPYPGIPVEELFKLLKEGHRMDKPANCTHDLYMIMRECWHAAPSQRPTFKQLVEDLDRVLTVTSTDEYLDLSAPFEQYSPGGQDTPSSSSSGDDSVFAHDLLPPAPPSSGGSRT
T16 sequence (Q16539 whole entry): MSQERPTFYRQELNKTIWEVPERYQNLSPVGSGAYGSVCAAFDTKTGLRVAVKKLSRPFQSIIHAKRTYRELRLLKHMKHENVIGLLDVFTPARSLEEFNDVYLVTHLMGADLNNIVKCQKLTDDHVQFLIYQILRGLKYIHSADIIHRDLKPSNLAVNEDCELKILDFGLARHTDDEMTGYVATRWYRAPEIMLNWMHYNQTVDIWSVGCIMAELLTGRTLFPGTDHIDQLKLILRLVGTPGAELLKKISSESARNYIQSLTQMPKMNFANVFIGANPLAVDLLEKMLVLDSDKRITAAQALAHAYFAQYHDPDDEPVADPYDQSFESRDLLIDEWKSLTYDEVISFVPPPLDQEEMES

Compound | IC50 (wild type BCR-Abl) | IC50 (G250E BCR-Abl) | IC50 (E255V BCR-Abl) | IC50 (T315I BCR-Abl) | IC50 (F317L BCR-Abl) | IC50 (M351T BCR-Abl) | IC50 (B-RAF) | inhibition at 10 µM (Bmx) | inhibition at 10 µM (c-Raf) | inhibition at 10 µM (CSK) | inhibition at 10 µM (Fes) | inhibition at 10 µM (Lck) | inhibition at 10 µM (SAPK2β) | inhibition at 10 µM (TrkB) | inhibition at 10 µM (FGFR3) | inhibition at 10 µM (MKK6) | inhibition at 10 µM (SAPK2α)
Cc1cn(-c2cc(C(=O)Nc3ccc(C)c(NC(=O)n4ccc5c(Nc6cccc(N(C)C)c6)ncnc54)c3)cc(C(F)(F)F)c2)cn1 [Example 3, 4-(3-Dimethylamino-phenylamino)-pyrrolo[2,3-d]pyrimidine-7-carboxylic acid {2-methyl-5-[3-(4-methyl-imidazol-1-yl)-5-trifluoromethyl-benzoylamino]-phenyl}-amide] | 22 nM | 170 nM | 220 nM | 370 nM | 50 nM | 29 nM | 32 nM | 100% | 83% | 90% | 82% | 95% | 95% | 100% |  |  | 
Cc1cn(-c2cc(C(=O)Nc3ccc(C)c(NC(=O)n4ccc5c(Nc6cccc(C(N)=O)c6)ncnc54)c3)cc(C(F)(F)F)c2)cn1 [Example 7, 4-(3-Carbamoyl-phenylamino)-pyrrolo[2,3-d]pyrimidine-7-carboxylic acid {2-methyl-5-[3-(4-methyl-imidazol-1-yl)-5-trifluoromethyl-benzoylamino]-phenyl}-amide] | 5 nM | 47 nM | 31 nM | 115 nM | 9 nM | 5 nM |  | 100% | 99% | 100% | 98% | 96% | 100% | 98% | 95% | 98% | 100%
